Source: US10934255B2, “Nrf and HIF activators/HDAC inhibitors and therapeutic methods using the same” (THE BOARD OF TRUSTEES OF THE UNIVERSITY OF ILLINOIS, priority 2017, dated 2021)
Read-outs that look alike come from different tables or passages of the source.

How the values were obtained:
[1] = system: panel of 43 cloned human and rodent CNS receptors, channels and transporters; assay: PDSP selectivity panel; format: binding; conditions: 43 CNS receptors
Protocol: Compound II-ING-6 also was tested in a panel of 43 cloned human and rodent CNS receptors, channels and transporters using the NIMH sponsored Psychoactive Drug Screening Program (PDSP).

[2] = system: TA98-S9, TA100-S9, TA1535-59, and TA1537-59; assay: Ames test (genetic toxicity); set-up: species or system bacterium; conditions: concentrations of 0.6-100 μM
Protocol: Compound II-ING-6 was tested in genetic toxicity assays to assess the mutagenic potential of the compound. The Ames test was done with several strains of bacterium, such as: TA98-S9, TA100-S9, TA1535-59, and TA1537-59.

[3] = Blood brain barrier test: tissue concentration after iv injection; format: in vivo, Mouse; conditions: after 20 minutes
Protocol: Tests were conducted to determine the ability of a present compound to cross the blood brain barrier (BBB). In particular, Mouse 1 was injected iv with about 7.5 mg/kg of compound II-ING-6 in DMSO. Mouse 2—about 10 mg/kg. Blood, brain, and liver were collected after 20 minutes (Table 4).

## O=C(NO)c1ccc(CN2CCc3ccc(Cl)cc32)cc1 [II-ING-6, 4-((6-Chloroindolin-1-yl)methyl)-N-hydroxybenzamide]
[1]
  Activity in PDSP panel: No significant activity
[2]
  Ames test result (mutagenic potential): Negative
[3]; brain, Mouse 1, iv 7.5 mg/kg in DMSO, read-out: Concentration, Brain
  concentration at 20 min: 1060 ng/g
[3]; brain, Mouse 2, iv 10 mg/kg in DMSO, read-out: Concentration, Brain
  concentration at 20 min: 1760 ng/g
[3]; liver, Mouse 1, iv 7.5 mg/kg in DMSO, read-out: Concentration, Liver
  concentration at 20 min: 501 ng/g
[3]; liver, Mouse 2, iv 10 mg/kg in DMSO, read-out: Concentration, Liver
  concentration at 20 min: 1030 ng/g
[3]; plasma, Mouse 1, iv 7.5 mg/kg in DMSO, read-out: Concentration, Plasma
  concentration at 20 min: 256 ng/g
[3]; plasma, Mouse 2, iv 10 mg/kg in DMSO, read-out: Concentration, Plasma
  concentration at 20 min: 387 ng/g
